The values that follow are results of earlier work, collected in article PMC8198792, “Prediction of Anticancer Peptides with High Efficacy and Low Toxicity by Hybrid Model Based on 3D Structure of Peptides” (International Journal of Molecular Sciences, 2021).

Like-named read-outs stand apart in the source and are kept apart here.

One data set concerns cancer cell lines. On the set-up: method as in 6 sources, ref CancerPPD [45] and SATPdb ||| ref CancerPPD/SATPdb ||| ref CancerPPD, SATPdb, Swissprot (PDB) ||| ref CancerPPD/SATPdb/Swissprot(PDB) ||| ref CancerPPD / SATPdb ||| ... The following applies: cited from earlier work. An excerpt:
Supplement ijms-22-05630-s001.zip/ACPs(seguence).xlsx, sheet "D1" | column: Activity || Supplement ijms-22-05630-s001.zip/ACPs(seguence).xlsx, sheet "D2" | column: Activity || Supplement ijms-22-05630-s001.zip/ACPs(seguence).xlsx, sheet "D3" | column: Activity || (+ 2 further places)

The test system of data set [1] is many types of cells, including non-cancer cells. To be noted: cited from earlier work; for Activity: toxic peptides dataset TD2, class label 1 (toxic, positive set) or 0 (non-toxic AMP, negative set), ref SATPdb.
Where [2] appears, read: ACPs dataset D3 (sheet "D3"), label 1 = ACP, 0 = non-ACP, ref CancerPPD/SATPdb.
Setting [3] is: ACPs dataset D4 (sheet "D4"), label 1 = ACP, 0 = non-ACP, ref CancerPPD / SATPdb.
The mark [4] stands for this setting: ACPs dataset D5, sheet "D5", label 1 = ACP, 0 = non-ACP, ref CancerPPD [45] and SATPdb.
Where [5] appears, read: ACPs dataset D3 (supplement sheet "D3"), 1 = ACP, 0 = non-ACP, ref CancerPPD [45] and SATPdb.

Regarding IWSAIWSGIKGLL [satpdb12218], the Activity (with cancer cell lines (setting [2]); with cancer cell lines (setting [3]); in the data set with cancer cell lines (setting [4]); in data set [1]) was 0 in each case.

As to RGGRLCYCRPRFCVCVGR [satpdb12800], the Activity (with cancer cell lines (setting [2]); in the data set on cancer cell lines (setting [3]); in the data set on cancer cell lines (setting [4]); in data set [1]) was 0 throughout.

Take VOLFPFFNQY [satpdb13046]: the Activity (with cancer cell lines (setting [2]); in the data set with cancer cell lines (setting [3]); in the data set with cancer cell lines (setting [4]); in data set [1]) was 0 in each case.

Turning to FIGAVAGLLSKIF [satpdb10850], the Activity in the data set with cancer cell lines (setting [5]) was 0; with cancer cell lines (setting [3]), 0; in the data set with cancer cell lines (setting [4]), 0; in data set [1], 1.

On to FLPLVGKILSGLI [satpdb11230], for which the Activity (in the data set on cancer cell lines (setting [5]); in the data set with cancer cell lines (setting [3]); with cancer cell lines (setting [4]); in data set [1]) was 0 throughout.

Consider FLSLLPSLVSGAVSLVKIL [satpdb10512], for which the Activity (with cancer cell lines (setting [5]); in the data set on cancer cell lines (setting [3]); in the data set with cancer cell lines (setting [4]); in data set [1]) was 0 each time.

Regarding GLWSKIKDVAAAAGKAALGAVNEAL [satpdb12483], the Activity (in the data set with cancer cell lines (setting [2]); with cancer cell lines (setting [3]); with cancer cell lines (setting [4]); in data set [1]) was 0 each time.

On to “FKIKPGKVLDKFGKIVGKVLKQLKKVS [satpdb13509]”, for which the Activity in the data set on cancer cell lines (setting [2]) is recorded as 0; in the data set on cancer cell lines (setting [3]) it was 0; in the data set with cancer cell lines (setting [4]) it was 0; in data set [1] it was 1.

In the case of “VIPFVASVAAEMMQHVYCAASKKC [satpdb10043, toxic peptide, datasets TD1 and TD3]”, the Activity was 0 in the data set with cancer cell lines (ACPs dataset D1, 1 = ACP (positive), 0 = non-ACP (negative), label taken from databases, ref CancerPPD [45] and SATPdb); 0 with cancer cell lines (ACPs dataset D4 (sheet "D4"), label 1 = ACP (CancerPPD ID), 0 = non-ACP (non-anticancer AMP, SATPdb ID), ref CancerPPD [45] and SATPdb). Also, the “Activity (dataset TD1, toxic 1 / non-toxic 0)” value in data set [1] (natural toxic peptide dataset TD1, label collected from database, ref SATPdb [34]) is on record as 1.

With KISKKIMRTFLRRILTGKK [satpdb19592], in data set [1], the Activity was 1.

Take LLGMIPLAISAISALSKL [satpdb26571]: the Activity in data set [1] is listed as 1.

In the case of “KWKVFKKIEKMGRNIRNGIVKAGPAIAVLGEAKAILS [satpdb11163]”, the Activity (in the data set on cancer cell lines (setting [5]); in the data set with cancer cell lines (setting [3]); in the data set on cancer cell lines (setting [4]); in data set [1]) was 0 throughout.

With FIGAILPAIAGLVHGLINR [satpdb19442], the Activity in data set [1] is 1.

Consider FLPAALAGIGGILGKLF [satpdb24046], for which, in data set [1], the Activity is reported as 1.

FVQWFSKFLGRIL [satpdb16211]: the Activity in data set [1] is recorded as 1.

Consider FLGAIAAALPHVINAVTNAL [satpdb16106], for which, in data set [1], the Activity is 1.

As for GVVTDLLNTAGGLLGNLVGSLSG [satpdb21886], the Activity in data set [1] is 1.

KAYSMPRCKYLFRAVLCWL [satpdb15879]: in data set [1], the Activity is on record as 0.

As to FFPIVGKRLYGLL [satpdb15392], in data set [1], the Activity was 0.

Consider GVVDILKGAGKDLLAHLVGKISEKV [satpdb27434], for which the Activity in data set [1] is given as 1.

Regarding GLVTSLIKGAGKLLGGLFGSVTG [satpdb15873], in data set [1], the Activity is listed as 0.

On to GFMKYIGPLIPHAVKAISDLI [satpdb17997], for which the Activity in data set [1] is 1.

As for GVLSVIKNALPGIMRF [satpdb16950], in data set [1], the Activity is recorded as 0.

In the case of FLPLIGKILGTIL [satpdb15913], the Activity in data set [1] was 0.

For the substance GVVTDLLKTAGKLLGNLVGSLSG [satpdb26504], in data set [1], the Activity is 1.

As for RILRGVSRRIMRRILTGRR [satpdb20239], in data set [1], the Activity is on record as 1.

On to GKWMSLLKHILK [satpdb20336], for which the Activity in data set [1] was 1.

Take GFGPAFHSVSNFAKKHKTA [satpdb16916]: the Activity in data set [1] is 0.

FLPLLFGALSTLLPKIF [satpdb23665]: the Activity in data set [1] is recorded as 1.

As for NFLGTLINLAKKIM [satpdb14927], the Activity in data set [1] is reported as 0.

Regarding GLWQKIKNAAGDLASGIVEGIKS [satpdb17290], the Activity in data set [1] is given as 0.

As to FFGWLIKGAIHAGKAIHGLIHRRRH [satpdb28313], in data set [1], the Activity was 1.

Regarding ILPWKWPWWPWRR [satpdb22480], the Activity in data set [1] was 1.

Take GALRGCWTKSYPPKPCK [satpdb24908]: the Activity in data set [1] is 1.

For FLPVILPVIGKLLSGIL [satpdb17809], the Activity in data set [1] is 1.

Turning to ALKAALLAILKIVRVIKK [satpdb15928], the Activity in data set [1] is reported as 0.

Take GFIFHIIKGLFHAGKMIHGLV [satpdb15908]: in data set [1], the Activity is reported as 0.

For the substance NFLGTLVNLAKKIL [satpdb20410], the Activity in data set [1] is listed as 1.

For the substance GLFDIVKKIAGHIVSSI [satpdb13076], the Activity in data set [1] is given as 0.

Take GLLSFLPKVIGVIGHLIHPPS [satpdb15305]: the Activity in data set [1] is 0.

In the case of GLVTGLLKTAGKLLGDLFGSLTG [satpdb19701], the Activity in data set [1] is 1.

Take GMASKAGSVLGKLAKVAIGAL [satpdb16457]: the Activity in data set [1] is given as 0.

Take “GRRRRSVQWCAVSQPEATKCFQWQRNMRKVRGPPVSCIKRDSPIQCIQA [satpdb10374]”: in data set [1], the Activity is reported as 0.

For the substance FLPFLIPALTSLISSL [satpdb15275], the Activity in data set [1] is 0.

Take “GVIIDTLKGAAKTVAAELLRKAHCKLTNSC [satpdb16783]”: the Activity in data set [1] is recorded as 1.

In the case of GILDAIKAFANALG [satpdb15517], in data set [1], the Activity is on record as 0.

For FIGALLRPALKLLAGK [satpdb27126], the Activity in data set [1] was 1.

Take LLDVLLE [satpdb11533]: in data set [1], the Activity is 0.

On to “LKLSPKTKDTLKKVLKGAIKGAIAIASMA [satpdb13200]”, for which the Activity in data set [1] was 1.

For the substance GFKDLLKGAAKALVKTVLF [satpdb25277], in data set [1], the Activity is given as 1.

Turning to GLFDIIKKIAESF [satpdb11488], the Activity in data set [1] is 0.

In the case of GLLDFVTGVGKDIFAQLIKQI [satpdb25435], the Activity in data set [1] is 1.

Regarding GMWSKILGHLIR [satpdb20159], the Activity in data set [1] was 1.

On to KILRGVSKKIMRTFLRRILTGKK [satpdb23198], for which, in data set [1], the Activity is recorded as 1.

Turning to FIGLLISAGKAIHDLIRRRH [satpdb26817], the Activity in data set [1] is 1.

On to FLSGIVGMLGKLF [satpdb21516], for which the Activity in data set [1] is reported as 1.

Consider GLVTGLLKTAGKLLGDLFGSLSG [satpdb20565], for which, in data set [1], the Activity is reported as 1.

For the substance FLGLLGSLL [satpdb15039], the Activity in data set [1] is given as 0.

For the substance GFRKFHKFWA [satpdb14908], in data set [1], the Activity is on record as 0.

ALYLAIRRR [satpdb16531]: the Activity in data set [1] is 0.

Regarding “RFRLPFRRPPIRIHPPPFYPPFRRFL [satpdb12266]”, the Activity in data set [1] is reported as 1.

ILPILSLIGGLLGK [satpdb11856]: the Activity in data set [1] is recorded as 0.

On to SAPRGCWTKSYPPKPCK [satpdb28266], for which, in data set [1], the Activity is on record as 1.

As for FLSAITSLLGKLL [satpdb15955], in data set [1], the Activity was 0.

Consider GFKRIVQRIKDFLRNLV [satpdb10735], for which the Activity in data set [1] was 0.

In the case of GIGGALLSAGKAALKGLAKVLV [satpdb22839], in data set [1], the Activity was 1.

Consider IIGPVLGLVGKPLESLLE [satpdb17226], for which the Activity in data set [1] was 0.

Consider NILNTIINLAKKIL [satpdb16074], for which, in data set [1], the Activity is 0.

Consider “RRRPRPPYLPRPRPPPFFPPRLPPRIPPGFPPRFPPRFP [satpdb15417]”, for which, in data set [1], the Activity is on record as 0.

Take LLGMIPLAISAISSLSKL [satpdb20037]: the Activity in data set [1] was 1.

Regarding GLGSLVGNALRIGAKLL [satpdb15217], the Activity in data set [1] is listed as 0.

With “GWLRKAAKSVGKFYYKHKYYIKAAWKIGRHAL [satpdb17212]”, the Activity in data set [1] is reported as 0.

Consider “LALALKHALHKALLLAKHLAHKLALA [satpdb16273]”, for which the Activity in data set [1] was 0.

Take FISGLIGGLMKAL [satpdb16102]: the Activity in data set [1] is 0.

Consider IFGAILPLALGALKNLIK [satpdb27411], for which, in data set [1], the Activity is 1.

On to FLPLVLGALSGILPKIL [satpdb22972], for which, in data set [1], the Activity is listed as 1.

For the substance GVLDIFKDAAKQILAHAAEKQI [satpdb12665], the Activity in data set [1] is reported as 1.

Consider GLLDIVKKVVGAFGSL [satpdb12368], for which, in data set [1], the Activity is given as 0.

Take LLPIVGNLLNSLL [satpdb24565]: the Activity in data set [1] is listed as 1.

As for GLFDIIKKVASVIGGL [satpdb15856], the Activity in data set [1] is 0.

Consider “GIGGVLLGAGKATLKGLAKVLAEKYAN [satpdb26873]”, for which, in data set [1], the Activity is 1.

Regarding FFPLVLGALGSILPKIF [satpdb25475], the Activity in data set [1] was 1.

For the substance TKPTLLGLPLGAGPAAGPGKR [satpdb17447], in data set [1], the Activity was 0.

Consider GVLDILKNAAKNILAHAAEQI [satpdb26113], for which the Activity in data set [1] is 1.

With “GLPVCGETCVGGTCNTPGCTCSWPVCTRN [satpdb19932]”, in data set [1], the Activity is given as 1.

IIGHLIKTALGMLGL [satpdb15972]: the Activity in data set [1] is 0.
